Four compounds from BindingDB's records for doi:10.3109/14756366.2010.529807 (University of Ioannina, 2011) can be followed below.

The experiment concerns the target T1, Seed linoleate 13S-lipoxygenase-1 (Glycine max, UniProt P08170).
T1 sequence (P08170 whole entry): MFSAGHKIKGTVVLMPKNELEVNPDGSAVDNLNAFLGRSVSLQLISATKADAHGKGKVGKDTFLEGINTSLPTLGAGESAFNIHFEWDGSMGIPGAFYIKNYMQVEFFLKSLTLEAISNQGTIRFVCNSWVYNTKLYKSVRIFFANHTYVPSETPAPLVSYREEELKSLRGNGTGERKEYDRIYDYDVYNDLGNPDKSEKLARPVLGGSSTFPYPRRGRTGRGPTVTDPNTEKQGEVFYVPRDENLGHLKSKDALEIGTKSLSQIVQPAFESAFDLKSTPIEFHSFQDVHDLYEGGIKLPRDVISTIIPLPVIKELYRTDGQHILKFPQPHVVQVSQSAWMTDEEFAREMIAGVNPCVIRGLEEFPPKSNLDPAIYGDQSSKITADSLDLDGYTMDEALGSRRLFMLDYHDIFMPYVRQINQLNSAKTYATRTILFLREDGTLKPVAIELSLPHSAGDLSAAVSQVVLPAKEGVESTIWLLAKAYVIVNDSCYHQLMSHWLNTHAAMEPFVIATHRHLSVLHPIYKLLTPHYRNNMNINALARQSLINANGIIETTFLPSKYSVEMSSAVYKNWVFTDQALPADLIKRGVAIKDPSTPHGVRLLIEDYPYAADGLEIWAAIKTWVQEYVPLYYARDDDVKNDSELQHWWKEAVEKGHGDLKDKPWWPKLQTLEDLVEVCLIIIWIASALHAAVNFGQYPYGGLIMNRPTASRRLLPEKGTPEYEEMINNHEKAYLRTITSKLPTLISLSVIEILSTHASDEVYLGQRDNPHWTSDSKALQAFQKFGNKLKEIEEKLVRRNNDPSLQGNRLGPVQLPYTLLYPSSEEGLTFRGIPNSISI
As to the kind of experiment: LOX Activity Assay. To be noted: 25 °C. How it is done: Enzyme activity was monitored by UV analysis. 0.05 cm^3 of enzyme solution was added to a cuvette containing 2 cm^3 linoleic acid solution and the appropriate amounts of buffer and inhibitor solutions in thermostatic water bath at 25°C. There was no pre-incubation time of the enzyme with inhibitor solution. The activity of the enzyme was determined by monitoring the increase in the absorption caused by the oxidation of linoleic acid at 234 nm and 25°C (ε = 25 000 M^−1 cm^−1). One standard solution of complexes in DMSO (10^-2 M) was used for theinhibition activity experiments (three sets). In this case, the substrate concentration was kept constant (0.3 mM), while the amounts of buffer and inhibitor solutions varied according to the inhibitor final concentration needed(0.5-30 μM or 0.15-9 μL from standard solutions). The total experiment volume was 3 cm^3.

With `Clc1ccc2sc([S][Au][PH](c3ccccc3)(c3ccccc3)c3ccccc3)nc2c1` [[Au(tpp)(Clmbzt)] (4)], half-maximal inhibition (IC50) was put at 16 µM.

Consider `c1ccc([PH]([Au][S]c2nc3ccccc3s2)(c2ccccc2)c2ccccc2)cc1` [[Au(tpp)(mbzt)] (3)], for which the IC50 (commonly the point on the concentration scale where inhibition reaches its midpoint) worked out at 39.4 µM.

In turn, `c1ccc([PH]([Au][S]C2=NCCS2)(c2ccccc2)c2ccccc2)cc1` [[Au(tpp)(mtzd)] (2)] showed an IC50 of 18.8 µM.

`[Cl][Au][PH](c1ccccc1)(c1ccccc1)c1ccccc1` [[Au(tpp)Cl] (1)] yielded an IC50 of 1.2 µM.
